Measured values: the CheMixHub viscosity set

Experiment: xn = mol fraction of the nth substance listed

CC(C)CC(C)(C)C + C1CCCCC1
viscosity [mPa·s]
Conditions | 298.15 K | 303.15 K | 308.15 K | 313.15 K | 318.15 K | 323.15 K
101 kPa, x2 = 0.1052 | – | 0.4666 | – | – | – | –
101 kPa, x2 = 0.1988 | – | 0.4842 | – | – | – | –
101 kPa, x2 = 0.3026 | – | 0.505 | – | – | – | –
101 kPa, x2 = 0.4095 | – | 0.5328 | – | – | – | –
101 kPa, x2 = 0.5008 | – | 0.5579 | – | – | – | –
101 kPa, x2 = 0.6005 | – | 0.5947 | – | – | – | –
101 kPa, x2 = 0.7002 | – | 0.6379 | – | – | – | –
101 kPa, x2 = 0.8014 | – | 0.6902 | – | – | – | –
101.33 kPa, x1 = 0.035 | 0.8617 | 0.7932 | 0.7312 | 0.6779 | 0.6323 | 0.5887
101.33 kPa, x1 = 0.0662 | 0.8283 | 0.7645 | 0.7054 | 0.6567 | 0.6115 | 0.5733
101.33 kPa, x1 = 0.1012 | 0.8041 | 0.741 | 0.6844 | 0.6377 | 0.5952 | 0.5565
101.33 kPa, x1 = 0.1376 | 0.7806 | 0.718 | 0.6639 | 0.6192 | 0.5793 | 0.5402
101.33 kPa, x1 = 0.1754 | 0.7572 | 0.6953 | 0.6438 | 0.6 | 0.5628 | 0.5235
101.33 kPa, x1 = 0.2147 | 0.7344 | 0.6732 | 0.6242 | 0.5813 | 0.5467 | –
101.33 kPa, x1 = 0.2557 | 0.7147 | 0.6528 | 0.6066 | 0.5646 | 0.5318 | –
101.33 kPa, x1 = 0.2984 | 0.6954 | 0.633 | 0.5895 | 0.5483 | 0.5172 | –
101.33 kPa, x1 = 0.343 | 0.6717 | 0.6129 | 0.5717 | 0.5322 | 0.5024 | –
101.33 kPa, x1 = 0.3895 | 0.6484 | 0.5933 | 0.5545 | 0.5166 | 0.488 | –
101.33 kPa, x1 = 0.4382 | 0.6219 | 0.5768 | 0.539 | 0.5029 | 0.4762 | –
101.33 kPa, x1 = 0.4891 | 0.5959 | 0.5607 | 0.524 | 0.4895 | 0.4647 | –
101.33 kPa, x1 = 0.5423 | 0.5752 | 0.5454 | 0.5098 | 0.4781 | 0.4527 | –
101.33 kPa, x1 = 0.5982 | 0.5549 | 0.5306 | 0.496 | 0.4671 | 0.4411 | –
101.33 kPa, x1 = 0.6569 | 0.5406 | 0.5132 | 0.4812 | 0.4546 | 0.4305 | –
101.33 kPa, x1 = 0.7185 | 0.5267 | 0.4963 | 0.4668 | 0.4424 | 0.4203 | –
101.33 kPa, x1 = 0.7834 | 0.5135 | 0.4848 | 0.457 | 0.4315 | 0.4106 | –
101.33 kPa, x1 = 0.8517 | 0.5006 | 0.4737 | 0.4475 | 0.421 | 0.4013 | –
101.33 kPa, x1 = 0.9238 | 0.4888 | 0.4625 | 0.4368 | 0.4131 | 0.3929 | –
